Source: PubChem BioAssay AID2060884 (Molecular Pharmacology Branch, DTP, NCI, 2025)

System: NCI-H929 complex spheroids, viability % test/control
Assay: Anticancer human tumor NCI-H929 cell line growth inhibition [RAS];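 also: compound exposure lasted seven days before viability was read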;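 as to viability, T/C: 100% = DMSO vehicle control viability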
Conditions: for IC50: curve of first compound; for viability, T/C: stronger effect = lower value
Method in brief: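 Multi-cell-type spheroids: tumor cells plus HUVEC endothelial cells and mesenchymal stem cells. RAS-pathway inhibitors were combined with targeted agents, each dosed in half-log steps down from clinical Cmax, or from 10 microM when Cmax was unknown.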

[1] = second compound 0.00316 µM, first compound 0.0316 µM
[2] = second compound 0.00316 µM, first compound 0.1 µM
[3] = second compound 0.00316 µM, first compound 0.316 µM
[4] = second compound 0.00316 µM, first compound 1 µM
[5] = second compound 0.00316 µM, first compound 3.16 µM
[6] = second compound 0.00316 µM, first compound 10 µM
[7] = second compound 0.01 µM, first compound 0.0316 µM
[8] = second compound 0.01 µM, first compound 0.1 µM
[9] = second compound 0.01 µM, first compound 0.316 µM
[10] = second compound 0.01 µM, first compound 1 µM
[11] = second compound 0.01 µM, first compound 3.16 µM
[12] = second compound 0.01 µM, first compound 10 µM
[13] = second compound 0.0316 µM, first compound 0.0316 µM
[14] = second compound 0.0316 µM, first compound 0.1 µM
[15] = second compound 0.0316 µM, first compound 0.316 µM
[16] = second compound 0.0316 µM, first compound 1 µM
[17] = second compound 0.0316 µM, first compound 3.16 µM
[18] = second compound 0.0316 µM, first compound 10 µM
[19] = second compound 0.1 µM, first compound 0.0316 µM
[20] = second compound 0.1 µM, first compound 0.1 µM
[21] = second compound 0.1 µM, first compound 0.316 µM
[22] = second compound 0.1 µM, first compound 1 µM
[23] = second compound 0.1 µM, first compound 3.16 µM
[24] = second compound 0.1 µM, first compound 10 µM
[25] = second compound 0.316 µM, first compound 0.0316 µM
[26] = second compound 0.316 µM, first compound 0.1 µM
[27] = second compound 0.316 µM, first compound 0.316 µM
[28] = second compound 0.316 µM, first compound 1 µM
[29] = second compound 0.316 µM, first compound 3.16 µM
[30] = second compound 0.316 µM, first compound 10 µM
[31] = second compound 1 µM, first compound 0.0316 µM
[32] = second compound 1 µM, first compound 0.1 µM
[33] = second compound 1 µM, first compound 0.316 µM
[34] = second compound 1 µM, first compound 1 µM
[35] = second compound 1 µM, first compound 3.16 µM
[36] = second compound 1 µM, first compound 10 µM

## CC1(O)CCCC1n1c(=O)c(C(F)F)cc2cnc(NC3CCN(S(C)(=O)=O)CC3)nc21 (stereo unspecified) + C=CC(=O)N1CCN(c2nc(OCC3CCCN3C)nc3c(F)c(-c4nc(N)cc(C)c4C(F)(F)F)c(Cl)cc23)C(C)C1
Second compound 0.00316 µM
  IC50: 184 nM
Second compound 0.01 µM
  IC50: 190 nM
Second compound 0.0316 µM
  IC50: 189 nM
Second compound 0.1 µM
  IC50: 192 nM
Second compound 0.316 µM
  IC50: 184 nM
Second compound 1 µM
  IC50: 182 nM
[1]
  viability, T/C: 115%
[2]
  viability, T/C: 101%
[3]
  viability, T/C: 4.56%
[4]
  viability, T/C: 8.72%
[5]
  viability, T/C: 2.59%
[6]
  viability, T/C: 0.82%
[7]
  viability, T/C: 112%
[8]
  viability, T/C: 108%
[9]
  viability, T/C: 3.89%
[10]
  viability, T/C: 8.77%
[11]
  viability, T/C: 3.05%
[12]
  viability, T/C: 0.57%
[13]
  viability, T/C: 107%
[14]
  viability, T/C: 107%
[15]
  viability, T/C: 3.77%
[16]
  viability, T/C: 9.13%
[17]
  viability, T/C: 2.62%
[18]
  viability, T/C: 0.19%
[19]
  viability, T/C: 109%
[20]
  viability, T/C: 109%
[21]
  viability, T/C: 4.89%
[22]
  viability, T/C: 8.17%
[23]
  viability, T/C: 2.43%
[24]
  viability, T/C: 0.18%
[25]
  viability, T/C: 113%
[26]
  viability, T/C: 101%
[27]
  viability, T/C: 4.58%
[28]
  viability, T/C: 9.4%
[29]
  viability, T/C: 2.18%
[30]
  viability, T/C: 0.46%
[31]
  viability, T/C: 121%
[32]
  viability, T/C: 99.8%
[33]
  viability, T/C: 4.25%
[34]
  viability, T/C: 7.11%
[35]
  viability, T/C: 2.09%
[36]
  viability, T/C: 0.13%

## CCC(CC)c1cc(NC2CCC(N)C2)n2nccc2n1 (stereo unspecified) + C=CC(=O)N1CCN(c2nc(OCC3CCCN3C)nc3c(F)c(-c4nc(N)cc(C)c4C(F)(F)F)c(Cl)cc23)C(C)C1
Second compound 0.00316 µM
  IC50: 1720 nM
Second compound 0.01 µM
  IC50: 1770 nM
Second compound 0.0316 µM
  IC50: 1750 nM
Second compound 0.1 µM
  IC50: 1760 nM
Second compound 0.316 µM
  IC50: 1770 nM
Second compound 1 µM
  IC50: 1780 nM
[1]
  viability, T/C: 100%
[2]
  viability, T/C: 91.7%
[3]
  viability, T/C: 93.5%
[4]
  viability, T/C: 93.2%
[5]
  viability, T/C: 1.09%
[6]
  viability, T/C: 0.82%
[7]
  viability, T/C: 96.3%
[8]
  viability, T/C: 98.3%
[9]
  viability, T/C: 97.9%
[10]
  viability, T/C: 97.9%
[11]
  viability, T/C: 1.58%
[12]
  viability, T/C: 0.56%
[13]
  viability, T/C: 93.3%
[14]
  viability, T/C: 95.7%
[15]
  viability, T/C: 97.3%
[16]
  viability, T/C: 100%
[17]
  viability, T/C: 1.12%
[18]
  viability, T/C: 0.24%
[19]
  viability, T/C: 95.9%
[20]
  viability, T/C: 96.1%
[21]
  viability, T/C: 99.4%
[22]
  viability, T/C: 99.6%
[23]
  viability, T/C: 0.2%
[24]
  viability, T/C: 0.59%
[25]
  viability, T/C: 98.5%
[26]
  viability, T/C: 99.4%
[27]
  viability, T/C: 94.7%
[28]
  viability, T/C: 101%
[29]
  viability, T/C: 1%
[30]
  viability, T/C: 0.48%
[31]
  viability, T/C: 106%
[32]
  viability, T/C: 104%
[33]
  viability, T/C: 97%
[34]
  viability, T/C: 99.2%
[35]
  viability, T/C: 0.64%
[36]
  viability, T/C: 0.11%

## CCN1CCN(Cc2ccc(Nc3ncc(F)c(-c4cc(F)c5nc(C)n(C(C)C)c5c4)n3)nc2)CC1 + C=CC(=O)N1CCN(c2nc(OCC3CCCN3C)nc3c(F)c(-c4nc(N)cc(C)c4C(F)(F)F)c(Cl)cc23)C(C)C1
Second compound 0.00316 µM
  IC50: > 1000 nM
Second compound 0.01 µM
  IC50: > 1000 nM
Second compound 0.0316 µM
  IC50: > 1000 nM
Second compound 0.1 µM
  IC50: > 1000 nM
Second compound 0.316 µM
  IC50: > 1000 nM
Second compound 1 µM
  IC50: > 1000 nM
Second compound 0.00316 µM, first compound 0.00316 µM
  viability, T/C: 99.6%
Second compound 0.00316 µM, first compound 0.01 µM
  viability, T/C: 97.4%
[1]
  viability, T/C: 108%
[2]
  viability, T/C: 103%
[3]
  viability, T/C: 117%
[4]
  viability, T/C: 107%
Second compound 0.01 µM, first compound 0.00316 µM
  viability, T/C: 100%
Second compound 0.01 µM, first compound 0.01 µM
  viability, T/C: 105%
[7]
  viability, T/C: 105%
[8]
  viability, T/C: 109%
[9]
  viability, T/C: 118%
[10]
  viability, T/C: 115%
Second compound 0.0316 µM, first compound 0.00316 µM
  viability, T/C: 102%
Second compound 0.0316 µM, first compound 0.01 µM
  viability, T/C: 103%
[13]
  viability, T/C: 112%
[14]
  viability, T/C: 109%
[15]
  viability, T/C: 119%
[16]
  viability, T/C: 113%
Second compound 0.1 µM, first compound 0.00316 µM
  viability, T/C: 95.8%
Second compound 0.1 µM, first compound 0.01 µM
  viability, T/C: 105%
[19]
  viability, T/C: 108%
[20]
  viability, T/C: 112%
[21]
  viability, T/C: 119%
[22]
  viability, T/C: 111%
Second compound 0.316 µM, first compound 0.00316 µM
  viability, T/C: 102%
Second compound 0.316 µM, first compound 0.01 µM
  viability, T/C: 105%
[25]
  viability, T/C: 113%
[26]
  viability, T/C: 113%
[27]
  viability, T/C: 119%
[28]
  viability, T/C: 115%
Second compound 1 µM, first compound 0.00316 µM
  viability, T/C: 108%
Second compound 1 µM, first compound 0.01 µM
  viability, T/C: 111%
[31]
  viability, T/C: 112%
[32]
  viability, T/C: 114%
[33]
  viability, T/C: 120%
[34]
  viability, T/C: 101%
